According to article PMC6271933, “Evaluation of the Toxicity of 5-Aryl-2-Aminoimidazole-Based Biofilm Inhibitors against Eukaryotic Cell Lines, Bone Cells and the Nematode Caenorhabditis elegans” (Molecules, 2014):
Values joined by “and” are separate entries in the source; they are usually repeats but may differ in a detail not shown here. Equal entries are not always repeated.

Assays:
P. aeruginosa biofilm = settings: concentration preventing biofilm formation (at 25 °C) by 50%; as previously reported ref 13, 14, 15, 16; read-out: BIC50 P. aeruginosa; cited from earlier work
S. Typhimurium biofilm = settings: concentration preventing biofilm formation (at 25 °C) by 50%; as previously reported ref 13, 14, 15, 16; read-out: BIC50 S. Typhimurium; cited from earlier work
[1] = tested on: human cervix carcinoma (HeLa); assay: Cytostatic activity against tumor cell lines (cell number by Coulter counter); format: cell-based; settings: 96 h, concentration inhibiting cell proliferation by 50%, four days incubation, mean of three repeats
Description: (§1) The IC50 was defined as the compound concentration required to inhibit cell proliferation by 50%. The therapeutic index (TI) was calculated as the ratio of the compound concentration producing toxicity (IC50) to the concentration needed to exert the desired ‘therapeutic’ effect on biofilms of Salmonella and Pseudomonas, indicated by the BIC50 (dose needed to prevent biofilm formation by 50%). The higher the therapeutic index, the broader the safety window of the compound.
(§2) Murine leukemia (L1210), human T-lymphocyte (CEM) and human cervix carcinoma (HeLa) were suspended at 300,000–500,000 cells/mL of culture medium, and 100 µL of a cell suspension was added to 100 µL of an appropriate dilution of the test compounds in 200 µL-wells of 96-well microtiter plates. After incubation at 37 °C for two (L1210), three (CEM) or four (HeLa) days, the cell number was determined using a Coulter counter. The IC50 was defined as the compound concentration required to inhibit cell proliferation by 50%.

murine leukemia (L1210) = assay: as above; format: cell-based; settings: Mus musculus, L1210, 48 h; concentration inhibiting cell proliferation by 50%; two days incubation; mean of three repeats
Description: as §1, §2

human T-lymphocyte (CEM) = assay: as above; format: cell-based; settings: 72 h, concentration inhibiting cell proliferation by 50%, three days incubation, mean of three repeats
Description: as §1, §2

C. elegans = format: in vivo, Caenorhabditis elegans; settings: 25 µM, after 7 days relative to viability at day 0; mean of at least two repeats
Description: Eggs of a double mutant (glp-4Dsek-1D) of C. elegans were grown on NGM/OP50 agar plates (NGM agar plates on the surface inoculated with 100 µL of an overnight culture of OP50 Escherichia coli and stored at 4 °C until use) at 25 °C until all nematodes had reached the L4 stage. Worms were collected and washed with M9 buffer (3 g/L KH2PO4, 6 g/L Na2HPO4, 5 g/L NaCl, 1 mM MgSO4). For toxicity testing, 40 to 50 worms were suspended in 250 μL M9 (supplemented with 10 µg/mL cholesterol, 75 µg/mL ampicillin and 100 µg/mL kanamycin) buffer in each well of 24-well microtiter plates, in the presence or absence (0.5% DMSO control) of 25, 100 or 200 µM of the test compounds and grown for 7 days at 25 °C. The percentage survival of the worms in the presence or absence of anti-biofilm compounds was calculated after 7 days relative to their viability at day 0.

SMILES	IC50 (P. aeruginosa biofilm)	IC50 (S. Typhimurium biofilm) [µM]	IC50 [1] [µM]	IC50 (murine leukemia (L1210)) [µM]	IC50 (human T-lymphocyte (CEM)) [µM]	C. elegans % survival at 25 µM (C. elegans) [%]
CC(C)CNc1ncc(-c2ccccc2)[nH]1 [compound 19]	1.2 µM	4.9	91.4	83.6	383	
c1ccc(-c2cnc(NC3CCCC3)[nH]2)cc1 [compound 20]	33.8 µM	52.9	27.3	27.3	293	98.1
CCCCNc1ncc(-c2ccc(Cl)cc2)[nH]1 [compound 21]			34.7	40	375	
CCCCCNc1ncc(-c2ccc(Cl)cc2)[nH]1 [compound 23]	~6.3 µM and 6.3 µM	> 400	19.8	22	323	
Clc1ccc(-c2cnc(NC3CCCC3)[nH]2)cc1 [compound 24]	13.5 µM	4.4	28.8	35.5	591	100.1
CC(C)CNc1ncc(-c2ccc(Br)cc2)[nH]1 [compound 26]	1.2 µM	2.9	22.6	31.7	306	
CCCCCNc1ncc(-c2ccc(Br)cc2)[nH]1 [compound 27]	10.2 µM	3.1	16.3	14.9	375	
Brc1ccc(-c2cnc(NC3CCCC3)[nH]2)cc1 [compound 28]	7.2 µM	12.1	32.7	32.7	674	
Clc1ccc(-c2cnc(NC3CCCC3)[nH]2)cc1Cl [compound 29]	7.9 µM	5.7	79.8	76.1	156	
COc1ccc(-c2nc(N)[nH]c2-c2ccccc2)cc1 [compound 30]		77.1	45.2	64.1	52.8	
Nc1nc(-c2ccc(Cl)cc2)c(-c2ccccc2)[nH]1 [compound 31]		46.9	40.8	59.3	48.2	
Cc1ccc(-c2nc(N)[nH]c2-c2ccc(Cl)cc2)cc1 [compound 32]		12.9	9.5	12.3	10.2	
Nc1nc(-c2ccc(C(F)(F)F)cc2)c(-c2ccc(Cl)cc2)[nH]1 [compound 33]		10.8	26.1	41.5	35.5	
CCCCCOc1ccc(Cc2nc(N)n(Cc3ccccc3)c2-c2ccc(C)cc2)cc1 [compound 35]	27.4 µM	10.3	14.8	8.6	8.4	
c1ccc(-c2cn(CCCNc3ncc(-c4ccccc4)[nH]3)nn2)cc1 [compound 36]	> 400 µM	36.5	72.9	221	453	87.7
c1ccc(-c2cn(CCCCNc3ncc(-c4ccccc4)[nH]3)nn2)cc1 [compound 37]	19 µM	40	107	218	459	86.4
COc1ccc(-c2cnc(NCCCn3cc(-c4ccc(Br)cc4)nn3)[nH]2)cc1 [compound 38]	42.7 µM	91.2	16.8	18.4	597	
Brc1ccc(-c2cnc(NCCCn3cc(C4CCCCC4)nn3)[nH]2)cc1 [compound 39]	~12.5 µM and 12.5 µM	8.4	22.5	20.7	396	99.3
